Experimental data reported in patent publication US7482415B2, “Process for producing fluoroionomer, method for purification and concentration of the ionomer, and method of film formation” (Daikin Industries, Ltd., priority 2000, dated 2009).

Experiments:
Format in all cases: physicochemical
[1] = Dissolution test (Solvent A): dissolving power of solvents for S monomer, visually evaluated; design: key: A: Completely dissolved; B: Partially dissolved or swelled; C: Not dissolved; conditions: small amount of S monomer
Method: (§1) Each solvent shown in the following table (50 cc) was placed in an individual test tube, and a small amount of S monomer was added to test the dissolving power.
The dissolving power was visually evaluated on the following scale of three. […] A: Completely dissolved; B: Partially dissolved or swelled; C: Not dissolved.

[2] = Solubility test of S monomer in solvents
[3] = Dissolution test (Solvent D): dissolving power of acids for S monomer, visually evaluated; design: key: A: Completely dissolved; B: Partially dissolved or swelled; C: Not dissolved; conditions: small amount of S monomer
Method: as §1
The dissolving power was visually evaluated on the following scale of three. […] A: Completely dissolved; B: Partially dissolved or swelled; C: Not dissolved

Dissolving power ([1]; solvent Acetic acid (50 cc)): A
Dissolving power ([1]; solvent Acetone (50 cc)): A
Dissolving power ([1]; solvent Acetonitrile (50 cc)): A
Dissolving power ([1]; solvent Benzene (50 cc)): C
Dissolving power ([1]; solvent Carbon disulfide (50 cc)): C
Dissolving power ([1]; solvent Chloroform (50 cc)): C
Dissolving power ([1]; solvent Diethyl ether (50 cc)): C
Dissolving power ([1]; solvent Dimethylformamide (50 cc)): A
Dissolving power ([1]; solvent Diphenyl ether (50 cc)): C
Dissolving power ([1]; solvent Ethanol (50 cc)): A
Dissolving power ([1]; solvent Ethyl acetate (50 cc)): A
Dissolving power ([1]; solvent Hexane (50 cc)): C
Dissolving power ([1]; solvent Isopropanol (50 cc)): A
Dissolving power ([1]; solvent Methanol (50 cc)): A
Dissolving power ([1]; solvent Pyridine (50 cc)): A
Dissolving power ([1]; solvent Tetrahydrofuran (50 cc)): A
Dissolving power ([1]; solvent Trifluoroacetic acid (50 cc)): A
Solubility ([2]; in Dimethoxyethane): 2.7 mol/L
Solubility ([2]; in Hexafluoroisopropanol): 0.03 mol/L
Solubility ([2]; in Trifluoroacetic acid): 0.7 mol/L
Solubility ([2]; in sec-Butanol): 0.77 mol/L
Solubility ([2]; in t-Butanol): 0.53 mol/L
Dissolving power ([3]; acid Acetic acid (50 cc)): A
Dissolving power ([3]; acid CF2═CFCF2COOH (50 cc)): A
Dissolving power ([3]; acid Hexafluoroisopropanol (50 cc)): A
Dissolving power ([3]; acid Hydrofluoric acid (50 cc)): A
Dissolving power ([3]; acid Trifluoroacetic acid (50 cc)): A
SMILES: O=S(=O)([O-])C(F)(F)C(F)(F)OC(F)=C(F)F.[Na+] [S monomer, CF2═CFOCF2CF2SO3Na]
